Test results taken from article PMC7694037, “Quinolizidine-Derived Lucanthone and Amitriptyline Analogues Endowed with Potent Antileishmanial Activity” (Pharmaceuticals, 2020).
Values after ≈ are worked out from the molar mass of the structure shown. Read-outs that look alike come from different tables or passages of the source.

Key:
[1] = Cytotoxicity against Vero-76 cells (crystal violet staining); assay type: cell-based, Cercopithecus Aethiops; conditions: Cercopithecus aethiops (African green monkey)
Protocol: (§1) The cytotoxicity of lucanthone was also tested for comparison. […] The relevant selectivity index (SI)—a parameter that quantifies the preferential antileishmanial activity of a compound in relation to mammalian cell toxicity (CC50/IC50)—is tabulated in Table 2. […] The replacement of the 4-methyl substituent with an amino group in compound 14, while preserving good antileishmanial activity, led to a further substantial decrease of cytotoxicity, with a resultantly safer profile (SI = 16.2 and 16.9 for the two Leishmania species).
(§2) Vero-76 cells (ATCC CRL 1587 Cercopithecus Aethiops) were seeded at an initial density of 4 × 10^5 cells/mL in 24-well plates, in culture medium (Dulbecco’s modified eagle’s medium (D-MEM) with L-glutamine, supplemented with fetal bovine serum (FBS), 0.025 g/L kanamycin). Cell cultures were then incubated at 37 °C in a humidified, 5% CO2 atmosphere in the absence or presence of serial dilutions of test compounds. Cell viability was determined after 48–96 h at 37 °C by the Crystal violet staining method. The results are expressed as CC50, which is the concentration of compound necessary to inhibit cell growth by 50%. Each CC50 value is the mean and standard deviation of at least three separate experiments performed in duplicate.

[2] = system: Vero-76 cells; assay: as above; assay type: cell-based, Cercopithecus Aethiops; conditions: for S.I. L. infantum: CC50 Vero-76 / IC50 L. infantum promastigotes; for S.I. L. tropica: CC50 Vero-76 / IC50 L. tropica promastigotes; for selectivity index (SI), range over both Leishmania species: Vero-76 cells vs L. tropica and L. infantum promastigotes
Protocol: as §1, §2

[3] = system: L. infantum promastigotes; assay: Antileishmanial activity against L. infantum promastigotes (MTT assay); conditions: for IC50: Leishmania infantum, 72 h, read-out: IC50 L. infantum; for Ratio IC50 Miltef./IC50 Compd. (L. infantum): ratio between IC50 of miltefosine and that of each compound, L. infantum promastigotes
Protocol: (§5) Promastigote stage of L. infantum strain MHOM/TN/80/IPT1 (kindly provided by Dr. M. Gramiccia, ISS, Roma) and L. tropica (MHOM/SY/2012/ISS3130) were cultured in RPMI 1640 medium (EuroClone) supplemented with 10% heat-inactivated fetal calf serum (EuroClone, Milan Italy), 20 mM Hepes and 2 mM L-glutamine at 24 °C. […] Compounds were dissolved in DMSO and then diluted with medium to achieve the required concentrations. Drugs were placed in 96 wells round-bottom microplates and seven serial dilutions made. Miltefosine was used as reference anti-Leishmania drug. Parasites were diluted in complete medium to 5 × 10^6 parasites/mL and 100 μL of the suspension was seeded into the plates, incubated at 24 °C for 72 h and then 20 µL of MTT solution (5 mg/mL) was added into each well for 3 h. The plates were then centrifuged, the supernatants were discarded and the resulting pellets were dissolved in 100 µL of lysing buffer consisting of 20% (w/v) of a solution of SDS (Sigma), 40% DMF (Merck, Milan Italy) in H2O. The absorbance was measured spectrophotometrically at a test wavelength of 550 nm and a reference wavelength of 650 nm.

[4] = system: Leishmania tropica promastigotes; assay: Antileishmanial activity against L. tropica promastigotes (MTT assay); conditions: for IC50: 72 h, IC50 ± SD; for Ratio IC50 Miltef./IC50 Compd. (L. tropica): ratio between IC50 of miltefosine and that of each compound, L. tropica promastigotes
Protocol: as §5

[5] = cited from earlier work
[6] = Cytotoxicity against PMA-differentiated THP-1 cells (MTT); assay type: cell-based, human; conditions: human
Protocol: (§3) The cytotoxic concentration (CC50) against THP-1 differentiated into macrophages (Table 3), used for testing the activity against the amastigote stage, is also reported.
(§4) THP-1 cells were plated at 5 × 10^5 cells/mL in 96 wells flat bottom microplates and treated with 0.1 µM PMA for 48 h to achieve differentiation into macrophages. Cells were then treated with serial dilutions of test compounds and cell proliferation evaluated using the MTT assay described for promastigotes.

[7] = system: PMA-differentiated THP-1; assay: as above; assay type: cell-based, human; conditions: CC50 THP-1 / IC50 L. infantum amastigotes
Protocol: as §3, §4

[8] = system: intramacrophagic amastigotes of L. infantum; assay: Intracellular amastigote susceptibility assay in PMA-differentiated THP-1 macrophages; assay type: cell-based; conditions: Leishmania infantum; intramacrophagic amastigotes in THP-1 macrophages, 72 h; mean ± SD; read-out: L. infantum Amastigotes IC50
Protocol: Finally, for a better idea of their real value as antileishmanial agents, compounds 14 and 17, displaying the most promising activity against promastigote stage and the highest SI values, together with lucanthone and the corresponding quinolizidine analog 1, were tested against the intramacrophagic amastigote stage of L. infantum.
THP-1 cells (human acute monocytic leukemia) were maintained in RPMI supplemented with 10% FBS (EuroClone), 50 µM 2-mercaptoethanol, 20 mM Hepes and 2 mM glutamine, at 37 °C in 5% CO2. For Leishmania infections, THP-1 cells were plated at 5 × 10^5 cells/mL in 16-chamber Lab-Tek culture slides (Nunc, Milan, Italy) and treated with 0.1 µM phorbol myristate acetate (PMA, Sigma) for 48 h to achieve differentiation into macrophages. Cells were washed and infected with metacyclic L. infantum promastigotes at a macrophage/promastigote ratio of 1/10 for 24 h. Cell monolayers were then washed and incubated in the presence of test compounds for 72 h. Slides were fixed with methanol and stained with Giemsa. The percentages of infected macrophages among treated and non-treated cells were determined by light microscopy.

[9] = system: Mycobacterium tuberculosis H37Ra; design: method as in PMID 3653383; conditions: cited from earlier work
[10] = Leishmania tropica, read-out: IC50 L. tropica, promastigotes, MTT, 72 h
[11] = i.p., doses up to 200–350 mg/kg, once a day for five consecutive days, mice inoculated with leukemia P388 cells

SMILES	IC50 [3]	Ratio IC50 Miltef./IC50 Compd. (L. infantum) [3]	IC50 [4, 10]	Ratio IC50 Miltef./IC50 Compd. (L. tropica) [4]	other results
Cc1ccc(NCCC2CCCN3CCCCC23)c2c(=O)c3ccccc3sc12 (stereo not shown) [Compound 2]	10.6 ± 3.78 µM	2.95	6.27 ± 2.75 µM	6.9	CC50 [1]: 22.9 ± 2.3 µM; S.I. L. infantum [2]: 2.2; S.I. L. tropica [2]: 3.7
Cc1ccc(NCCCC2CCCN3CCCCC23)c2c(=O)c3ccccc3sc12 (stereo not shown) [Compound 3]	17.2 ± 1.31 µM	1.8	8.89 ± 3.02 µM	4.87	
Cc1ccc(NC[C@@H]2CCC[N+]3(C)CCCC[C@H]23)c2c(=O)c3ccccc3sc12.[I-] (stereo partly drawn) [Compound 4, (1S,9aR)-5-methyl-1-{[(4-methyl-9-oxo-9H-thioxanthen-1-yl)amino]methyl}-decahydroquinolizin-5-ium iodide]	13 ± 2.8 µM	2.4	17.8 ± 5.61 µM	2.4	melting point: 147 to 150 °C
COc1ccc2sc3c(C)ccc(NCC4CCCN5CCCCC45)c3c(=O)c2c1 (stereo not shown) [Compound 5]	8.99 ± 3.86 µM	3.5	8.16 ± 5.23 µM	5.3	mortality [5, 11]: no mortality
COc1ccc2sc3c(C)ccc(NCCCC4CCCN5CCCCC45)c3c(=O)c2c1 (stereo not shown) [Compound 7]	19.7 ± 5.79 µM	1.6	12 ± 5.24 µM	3.6	
O=c1c2ccccc2sc2c([N+](=O)[O-])ccc(NCC3CCCN4CCCCC34)c12 (stereo not shown) [Compound 8]	38.7 ± 7.67 µM	0.8	19.2 ± 9.33 µM	2.25	
O=c1c2ccccc2sc2c([N+](=O)[O-])ccc(NCCC3CCCN4CCCCC34)c12 (stereo not shown) [Compound 9]	9.39 ± 4.34 µM	3.3	4.64 ± 1.12 µM	9.3	mortality [5, 11]: no mortality
O=c1c2ccccc2sc2c([N+](=O)[O-])ccc(NCCCC3CCCN4CCCCC34)c12 (stereo not shown) [Compound 10]	22.3 ± 3.3 µM	1.4	11.1 ± 3.3 µM	3.9	
COc1ccc2sc3c([N+](=O)[O-])ccc(NCC4CCCN5CCCCC45)c3c(=O)c2c1 (stereo not shown) [Compound 11]	13 ± 0.97 µM	2.4	6.35 ± 1.46 µM	6.8	
COc1ccc2sc3c([N+](=O)[O-])ccc(NCCCC4CCCN5CCCCC45)c3c(=O)c2c1 (stereo not shown) [Compound 12]	7.89 ± 2.41 µM	3.95	7.39 ± 2.31 µM	5.85	
Nc1ccc(NCC2CCCN3CCCCC23)c2c(=O)c3ccccc3sc12 (stereo not shown) [Compound 13]	5.23 ± 1.83 µM	6.0	2.87 ± 0.43 µM	15.1	
Nc1ccc(NCCC2CCCN3CCCCC23)c2c(=O)c3ccccc3sc12 (stereo not shown) [Compound 14, 4-amino-1-(quinolizidinylethyl)aminothioxanthen-9-one]	3.63 ± 0.78 µM	8.6	3.8 ± 1.82 µM	11.4	CC50 [1]: 61.4 ± 2.6 µM; S.I. L. infantum [2]: 16.9; S.I. L. tropica [2]: 16.2; selectivity index (SI), range over both Leishmania species [2]: 16–24; mortality ([5]; mouse, in vivo, 260 mg/kg): no mortality; CC50 [6]: 21.7 ± 8.83 µM; SI (THP-1) [7]: 10.2; IC50 [8]: 2.13 ± 1.35 µM
Nc1ccc(NCCCC2CCCN3CCCCC23)c2c(=O)c3ccccc3sc12 (stereo not shown) [Compound 15]	4.22 ± 1.95 µM	7.4	3.72 ± 1.66 µM	11.6	
Cc1ccc(NCC2CCCN3CCCCC23)c2c(=O)c3ccccc3oc12 (stereo not shown) [Compound 16]	8.23 ± 1.51 µM	3.8	6.56 ± 3.08 µM	6.6	
C(=C1c2ccccc2-c2ccccc21)[C@@H]1CCCN2CCCC[C@H]12 [Compound 17, 9-(quinolizidinylmethylidene)fluorene]	4.35 ± 0.37 µM	7.2	3.5 µM	12.4	CC50 [1]: 83.4 ± 3 µM; S.I. L. infantum [2]: 19.2; S.I. L. tropica [2]: 23.9; selectivity index (SI), range over both Leishmania species [2]: 16–24; IC50 ([4]; read-out: IC50 L. tropica, promastigotes, MTT): 3.49 ± 1.02 µM; CC50 [6]: 53.9 ± 3.98 µM; SI (THP-1) [7]: 20.0; MIC Mycobacterium tuberculosis H37Ra [9]: 0.49 µM (≈ 0.155 µg/mL); IC50 [8]: 2.7 ± 0.68 µM
C[N+]12CCCC[C@@H]1[C@H](C=C1c3ccccc3-c3ccccc31)CCC2 (stereo partly shown) [Compound 19]	16.4 ± 0.59 µM	1.90	10.5 ± 2.69 µM	4.1	CC50 [1]: 82.7 ± 4.7 µM; S.I. L. infantum [2]: 5.0; S.I. L. tropica [2]: 7.9; MIC Mycobacterium tuberculosis H37Ra [9]: 83.9 µM
C[N+]12CCCC[C@@H]1[C@H](C=C1c3ccccc3CCc3ccccc31)CCC2.[I-] (stereo partly drawn) [Compound 20, (1S,9aR)-1-[(10,11-dihydro-5H-dibenzo[a,d][7]annulen-5-ylidene)methyl]-5-methyl-decahydroquinolizin-5-ium iodide]	8.71 ± 0.68 µM	3.58	7.21 ± 3.52 µM	6.0	CC50 [1]: 89.9 ± 3.7 µM; S.I. L. infantum [2]: 10.3; S.I. L. tropica [2]: 12.5; melting point: 283 to 286 °C
CCCCCCCCCCCCCCCCOP(=O)([O-])OCC[N+](C)(C)C [Miltefosine, reference compound]		1.0	43.3 ± 11.4 µM	1.0	
NNC(=O)c1ccncc1 [isoniazide, reference compound]					MIC Mycobacterium tuberculosis H37Ra [9]: 0.14 to 0.28 µM
